Reference: patent publication US8604036B2, “Pyridazinone derivatives” (Merck Patent GmbH, priority 2008, dated 2013)

What was measured:
Met kinase [1] = molecular target: T1, Met kinase (Homo sapiens, UniProt P08581); assay: Met kinase inhibition (cell); format: cell-based
Target sequence in this assay (P08581 25-1390): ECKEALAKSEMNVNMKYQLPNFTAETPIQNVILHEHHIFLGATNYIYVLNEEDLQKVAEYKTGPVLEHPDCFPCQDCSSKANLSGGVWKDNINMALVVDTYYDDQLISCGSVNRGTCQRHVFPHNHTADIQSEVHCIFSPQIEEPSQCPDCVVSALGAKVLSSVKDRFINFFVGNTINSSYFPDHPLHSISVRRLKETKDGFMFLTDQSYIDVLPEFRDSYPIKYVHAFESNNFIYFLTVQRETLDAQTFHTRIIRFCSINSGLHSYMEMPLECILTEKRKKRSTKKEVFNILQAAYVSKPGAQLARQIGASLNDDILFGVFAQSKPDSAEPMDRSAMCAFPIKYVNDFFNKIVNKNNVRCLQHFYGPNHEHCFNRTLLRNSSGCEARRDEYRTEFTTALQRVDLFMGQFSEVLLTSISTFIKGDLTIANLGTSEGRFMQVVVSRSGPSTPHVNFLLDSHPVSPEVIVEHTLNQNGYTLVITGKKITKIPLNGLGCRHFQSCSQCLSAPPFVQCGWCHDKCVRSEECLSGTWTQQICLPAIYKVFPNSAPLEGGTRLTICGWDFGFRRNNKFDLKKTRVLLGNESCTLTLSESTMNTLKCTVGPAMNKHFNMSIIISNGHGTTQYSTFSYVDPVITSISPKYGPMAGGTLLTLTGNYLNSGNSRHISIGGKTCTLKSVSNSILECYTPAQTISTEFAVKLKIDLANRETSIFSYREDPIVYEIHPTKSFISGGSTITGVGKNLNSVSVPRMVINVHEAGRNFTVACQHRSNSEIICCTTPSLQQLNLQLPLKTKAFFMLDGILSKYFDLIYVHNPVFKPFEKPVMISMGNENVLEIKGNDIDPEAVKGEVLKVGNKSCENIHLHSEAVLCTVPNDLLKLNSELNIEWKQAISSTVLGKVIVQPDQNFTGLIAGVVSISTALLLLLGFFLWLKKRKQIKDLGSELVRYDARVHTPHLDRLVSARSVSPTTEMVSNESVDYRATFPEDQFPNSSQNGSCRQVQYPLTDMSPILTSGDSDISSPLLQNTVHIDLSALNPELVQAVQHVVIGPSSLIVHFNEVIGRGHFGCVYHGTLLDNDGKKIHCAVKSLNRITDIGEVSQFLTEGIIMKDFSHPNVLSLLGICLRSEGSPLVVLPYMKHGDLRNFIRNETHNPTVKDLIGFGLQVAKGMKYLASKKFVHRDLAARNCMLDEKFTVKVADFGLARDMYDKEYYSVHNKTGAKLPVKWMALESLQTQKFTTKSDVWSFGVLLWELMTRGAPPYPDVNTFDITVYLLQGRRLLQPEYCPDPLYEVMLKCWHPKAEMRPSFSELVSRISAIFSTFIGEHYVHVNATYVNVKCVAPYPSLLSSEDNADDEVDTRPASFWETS

Met kinase [2] = molecular target: T1, Met kinase; assay: Met kinase inhibition, flashplate method (enzyme); format: biochemical; set-up: 6His (N); purchased Upstate 14-526; host or cells: Sf21 insect cells (S. frugiperda), baculovirus
Excerpt: Measurement of Met Kinase Activity
According to the manufacturer's data (Met, active, upstate, catalogue No. 14-526), Met kinase is expressed for the purposes of protein production in insect cells (Sf21; S. frugiperda) and subsequent affinity-chromatographic purification as “N-terminal 6His-tagged” recombinant human protein in a baculovirus expression vector.
Flashplate Method (Met Kinase)
The test plates used are 96-well Flashplate® microtitre plates from Perkin Elmer (Cat. No. SMP200). The components of the kinase reaction described below are pipetted into the assay plate. The Met kinase and the substrate poly Ala-Glu-Lys-Tyr, (pAGLT, 6:2:5:1), are incubated for 3 hrs at room temperature with radioactively labelled ^33P-ATP in the presence and absence of test substances in a total volume of 100 μl. The reaction is terminated using 150 μl of a 60 mM EDTA solution. After incubation for a further 30 min at room temperature, the supernatants are filtered off with suction, and the wells are washed three times with 200 μl of 0.9% NaCl solution each time. The measurement of the bound radioactivity is carried out by means of a scintillation measuring instrument (Topcount NXT, Perkin-Elmer).
The full value used is the inhibitor-free kinase reaction. This should be approximately in the range 6000-9000 cpm. […] The inhibitory values (IC50) are determined using the RS1_MTS program. […]
Target sequence in this assay (P08581 974-1390 limits assumed): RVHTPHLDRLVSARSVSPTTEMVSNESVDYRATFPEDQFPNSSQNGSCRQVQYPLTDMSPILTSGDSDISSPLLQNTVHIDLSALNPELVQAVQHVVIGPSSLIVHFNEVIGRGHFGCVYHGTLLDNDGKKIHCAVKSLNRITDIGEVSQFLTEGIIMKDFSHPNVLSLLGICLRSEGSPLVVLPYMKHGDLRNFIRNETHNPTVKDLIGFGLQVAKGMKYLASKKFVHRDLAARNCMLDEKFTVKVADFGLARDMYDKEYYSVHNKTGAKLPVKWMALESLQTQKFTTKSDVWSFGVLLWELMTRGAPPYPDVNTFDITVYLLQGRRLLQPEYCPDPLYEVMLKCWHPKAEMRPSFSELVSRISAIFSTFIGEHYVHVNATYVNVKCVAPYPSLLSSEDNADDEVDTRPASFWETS

IC50 (Met kinase [1]) [nM] | IC50 (Met kinase [2]) [nM] | SMILES
1000 to 10000 | 10 to 1000 | Cc1ccc(-c2cccc(Cn3nc(-c4cc(F)cc(F)c4)ccc3=O)n2)nc1 [Compound A1, 6-(3,5-difluorophenyl)-2-(5′-methyl-[2,2′]bipyridinyl-6-ylmethyl)-2H-pyridazin-3-one]
10 to 1000 | – | N#Cc1cccc(-c2ccc(=O)n(Cc3cccc(-c4ncc(-c5cnn(CCN6CCCC6)c5)cn4)n3)n2)c1 [Compound A2, 3-[6-oxo-1-(6-{5-[1-(2-pyrrolidin-1-ylethyl)-1H-pyrazol-4-yl]pyrimidin-2-yl}pyridin-2-ylmethyl)-1,6-dihydropyridazin-3-yl]benzonitrile]
